Results taken from US11730815B2, “Stable liquid pharmaceutical compositions comprising bendamustine” (GOOD HEALTH, LLC, priority 2018, dated 2023).
Converted amounts (≈) assume the structure as drawn. “Also recorded” adds a separate entry of the source. One block for each compound: values may come before it.

What was measured:
Assay type in all cases: physicochemical
[1] = Solubility of HPβCD in non-aqueous solvents; details: sonicated 10 minutes
Description: PG, PEG 200, PEG 300, PEG 400, and PEG 600 were added to vials containing hydroxy propyl-β-cyclodextrin (HPβCD) (50 mg) and sonicated for 10 minutes. […]

[2] = Solubility of bendamustine in non-aqueous solvents; details: sonication; for solubility: organic solvent or mixture, thermodynamic from solid
Description: Bendamustine HCl was added in 5-10 mg increments to vials containing PG, PEG 200, PEG 300, PEG 400, and PEG 600, and the mixtures were sonicated. Sonication was stopped when the solution remained turbid after 8-10 minutes of sonication.
Note: The solubility might be slightly overestimated because of the generation of heat during long sonication.

[3] = Solubility of bendamustine in non-aqueous solvents in the presence of cyclodextrin; details: for solubility: organic solvent or mixture, thermodynamic from solid
Description: Bendamustine HCl was added to vials containing 50 mg of HPβCD per mL and PG, PEG 200, PEG 300, PEG 400, or PEG 600, and the mixtures were sonicated for about 8-10 minutes after each addition of bendamustine. The addition of bendamustine was stopped when the solutions remained turbid even after sonication for about 8-10 minutes.

Solubility of HPβCD: Physical observation ([1]; 50 mg HPβCD per mL of PEG 200): adequate; also recorded: Clear
Solubility of HPβCD: Physical observation ([1]; 50 mg HPβCD per mL of PEG 300): adequate; also recorded: Clear
Solubility of HPβCD: Physical observation ([1]; 50 mg HPβCD per mL of PEG 400): insoluble; also recorded: Turbid
Solubility of HPβCD: Physical observation ([1]; 50 mg HPβCD per mL of PEG 600): insoluble; also recorded: Turbid
Solubility of HPβCD: Physical observation ([1]; 50 mg HPβCD per mL of PG): adequate; also recorded: Clear
Compound: hydroxy propyl-β-cyclodextrin [HPβCD]

Compound: Cn1c(CCCC(=O)O)nc2cc(N(CCCl)CCCl)ccc21 [bendamustine, 4-(5-(bis(2-chloroethyl)amino)-1-methyl-1H-benzo[d]imidazol-2-yl)butanoic acid]
solubility ([2]; PEG 200 (non-aqueous solvent), in PEG 200): > 50 mg/mL
solubility ([2]; PEG 300 (non-aqueous solvent), in PEG 300): > 50 mg/mL
solubility ([2]; PEG 400 (non-aqueous solvent), in PEG 400): 25 to 30 mg/mL (≈ 69.8 to 83.7 mM)
solubility ([2]; PEG 600 (non-aqueous solvent), in PEG 600): 8 to 10 mg/mL (≈ 22.3 to 27.9 mM)
solubility ([2]; PG (non-aqueous solvent), in PG): > 50 mg/mL
Solubility of bendamustine ([2]; in PEG 200): adequate
Solubility of bendamustine ([2]; in PEG 300): adequate
Solubility of bendamustine ([2]; in PEG 400): insufficient
Solubility of bendamustine ([2]; in PEG 600): insufficient
Solubility of bendamustine ([2]; in PG): adequate
solubility ([3]; PEG 200 with 50 mg/mL HPβCD, in PEG 200 with 50 mg HPβCD per mL): 50 mg/mL
solubility ([3]; PEG 300 with 50 mg/mL HPβCD, in PEG 300 with 50 mg HPβCD per mL): 50 mg/mL
solubility ([3]; PEG 400 with 50 mg/mL HPβCD, in PEG 400 with 50 mg HPβCD per mL): 40 to 45 mg/mL
solubility ([3]; PEG 600 with 50 mg/mL HPβCD, in PEG 600 with 50 mg HPβCD per mL): 25 to 30 mg/mL
solubility ([3]; PG with 50 mg/mL HPβCD, in PG with 50 mg HPβCD per mL): 50 mg/mL
Appearance of resulting liquid mixture ([3]; in PEG 200 with 50 mg HPβCD per mL): Clear solution
Appearance of resulting liquid mixture ([3]; in PEG 300 with 50 mg HPβCD per mL): Clear solution
Appearance of resulting liquid mixture ([3]; in PEG 400 with 50 mg HPβCD per mL): Clear solution
Appearance of resulting liquid mixture ([3]; in PEG 600 with 50 mg HPβCD per mL): Clear solution
Appearance of resulting liquid mixture ([3]; in PG with 50 mg HPβCD per mL): Clear solution
